Measured values from ChEMBL document CHEMBL1157536, “Improvement of meta-tetra(hydroxyphenyl)chlorin-like photosensitizer selectivity with folate-based targeted delivery. synthesis and in vivo delivery studies” (J Med Chem, 2008).

Tests used:
Details in all cases: in vivo
[1] = Ratio of drug uptake in tumor to skin in folate receptor deficient HT29 cells xenografted athymic Swiss nude mouse with folate free diet assessed as fluorescence accumulation by UV-visible spectrophotometer; assay type: ADME, cell-based, HT-29
[2] = Ratio of drug uptake in tumor to skin in human KB cells expressing folate receptor xenografted athymic Swiss nude mouse with folate diet assessed as fluorescence accumulation by UV-visible spectrophotometer; assay type: ADME, cell-based
[3] = Ratio of drug uptake in tumor to skin in folate receptor deficient HT29 cells xenografted athymic Swiss nude mouse with folate diet assessed as fluorescence accumulation by UV-visible spectrophotometer; assay type: ADME, cell-based, HT-29
[4] = Ratio of drug uptake in tumor to skin in human KB cells expressing folate receptor xenografted athymic Swiss nude mouse with folate free diet assessed as fluorescence accumulation by UV-visible spectrophotometer; assay type: ADME, cell-based

Molecule `O=C(O)c1ccc(-c2c3nc(c(-c4cccc(O)c4)c4ccc([nH]4)c(-c4cccc(O)c4)c4nc(c(-c5cccc(O)c5)c5ccc2[nH]5)C=C4)CC3)cc1` has a Ratio [1] of 3.7, a Ratio [2] of 2.8 and a Ratio [3] of 1.1. It also gave a Ratio [4] of 2.1.
`Nc1nc(O)c2nc(CNc3ccc(C(=O)NC(CCC(=O)NCCOCCOCCNC(=O)c4ccc(-c5c6nc(c(-c7cccc(O)c7)c7ccc([nH]7)c(-c7cccc(O)c7)c7nc(c(-c8cccc(O)c8)c8ccc5[nH]8)C=C7)CC6)cc4)C(=O)O)cc3)cnc2n1` (stereo not drawn) showed a Ratio [1] of 1, a Ratio [2] of 1.9 and a Ratio [3] of 2.1. It also gave a Ratio [4] of 5.
